# Measurements published in patent publication EP0584797A2, “Novel cephalosporin compounds and processes for the preparation thereof” (LUCKY LTD., priority 1992, dated 1994).
# Legend:
# Assay in all cases: minimal inhibitory concentration, two-fold agar dilution
# Assay type in all cases: cell-based
# [1] = tested on: Acinetobacter calcoaceticus ATCC 15473; conditions: ATCC15473, Muller-Hinton agar, 37°C, 20 hours, read-out: MIC values against the standard strains
# Experimental: (§1) These MIC values were taken by employing a two-fold dilution method: that is, two-fold serial dilutions of each of the test compounds were made and dispersed in a Muller-Hinton agar medium; 2µl of the standard test strain which had the 10⁷ CFU(Colony Forming Unit) per ml was inoculated on the medium; and these were incubated at 37°C for 20 hours.
# [2] = tested on: Bacillus cereus ATCC 11778; conditions: ATCC11778, Muller-Hinton agar, 37°C, 20 hours, read-out: MIC values against the standard strains
# Experimental: as §1
# [3] = tested on: Bacillus megaterium ATCC 9885; conditions: Priestia megaterium, ATCC9885; Muller-Hinton agar; 37°C; 20 hours; read-out: MIC values against the standard strains
# Experimental: as §1
# [4] = tested on: Citrobacter freundii ATCC 8090; conditions: ATCC8090, Muller-Hinton agar, 37°C, 20 hours, read-out: MIC values against the standard strains
# Experimental: as §1
# [5] = tested on: Enterobacter aerogenes ATCC 29751; conditions: Klebsiella aerogenes, ATCC29751; Muller-Hinton agar; 37°C; 20 hours; read-out: MIC values against the standard strains
# Experimental: as §1
# [6] = tested on: Enterobacter cloacae ATCC 27508; conditions: ATCC27508, Muller-Hinton agar, 37°C, 20 hours, read-out: MIC values against the standard strains
# Experimental: as §1
# [7] = tested on: Escherichia coli ATCC 10536; conditions: ATCC10536, Muller-Hinton agar, 37°C, 20 hours, read-out: MIC values against the standard strains
# Experimental: as §1
# [8] = tested on: Escherichia coli ATCC 25922; conditions: ATCC25922, Muller-Hinton agar, 37°C, 20 hours, read-out: MIC values against the standard strains
# Experimental: as §1
# [9] = tested on: Klebsiella pneumoniae ATCC 10031; conditions: ATCC10031, Muller-Hinton agar, 37°C, 20 hours, read-out: MIC values against the standard strains
# Experimental: as §1
# [10] = tested on: Micrococcus luteus ATCC 9341; conditions: ATCC9341, Muller-Hinton agar, 37°C, 20 hours, read-out: MIC values against the standard strains
# Experimental: as §1
# [11] = tested on: Morganella morganii ATCC 8076h; conditions: ATCC8076H, Muller-Hinton agar, 37°C, 20 hours, read-out: MIC values against the standard strains
# Experimental: as §1
# [12] = tested on: Proteus mirabilis ATCC 25933; conditions: ATCC25933, Muller-Hinton agar, 37°C, 20 hours, read-out: MIC values against the standard strains
# Experimental: as §1
# [13] = tested on: Proteus vulgaris ATCC 6059; conditions: ATCC6059, Muller-Hinton agar, 37°C, 20 hours, read-out: MIC values against the standard strains
# Experimental: as §1
# [14] = tested on: Providencia rettgeri ATCC 9250; conditions: ATCC9250, Muller-Hinton agar, 37°C, 20 hours, read-out: MIC values against the standard strains
# Experimental: as §1
# [15] = tested on: Pseudomonas aeruginosa ATCC 10145; conditions: ATCC10145, Muller-Hinton agar, 37°C, 20 hours, read-out: MIC values against the standard strains
# Experimental: as §1
# [16] = tested on: Pseudomonas aeruginosa ATCC 25619; conditions: ATCC25619, Muller-Hinton agar, 37°C, 20 hours, read-out: MIC values against the standard strains
# Experimental: as §1
# [17] = tested on: Pseudomonas aeruginosa ATCC 27853; conditions: ATCC27853, Muller-Hinton agar, 37°C, 20 hours, read-out: MIC values against the standard strains
# Experimental: as §1
# [18] = tested on: Salmonella typhimurium ATCC 14028; conditions: Salmonella enterica; Muller-Hinton agar; 37°C; 20 hours; read-out: MIC values against the standard strains
# Experimental: as §1
# [19] = tested on: Serratia marcescens ATCC 27117; conditions: ATCC27117, Muller-Hinton agar, 37°C, 20 hours, read-out: MIC values against the standard strains
# Experimental: as §1
# [20] = tested on: Shigella flexneri ATCC 11836; conditions: ATCC11836, Muller-Hinton agar, 37°C, 20 hours, read-out: MIC values against the standard strains
# Experimental: as §1
# [21] = tested on: Shigella sonnei ATCC 11060; conditions: ATCC11060, Muller-Hinton agar, 37°C, 20 hours, read-out: MIC values against the standard strains
# Experimental: as §1
# [22] = tested on: Staphylococcus aureus ATCC 10537; conditions: ATCC10537, Muller-Hinton agar, 37°C, 20 hours, read-out: MIC values against the standard strains
# Experimental: as §1
# [23] = tested on: Staphylococcus aureus ATCC 6538p; conditions: ATCC6538P, Muller-Hinton agar, 37°C, 20 hours, read-out: MIC values against the standard strains
# Experimental: as §1
# [24] = tested on: Staphylococcus epidermidis ATCC 12228; conditions: ATCC12228, Muller-Hinton agar, 37°C, 20 hours, read-out: MIC values against the standard strains
# Experimental: as §1
# [25] = tested on: Streptococcus faecalis ATCC 29212; conditions: Enterococcus faecalis, ATCC29212; Muller-Hinton agar; 37°C; 20 hours; read-out: MIC values against the standard strains
# Experimental: as §1
Structure (SMILES),MIC [1],MIC [2],MIC [3],MIC [4],MIC [5],MIC [6],MIC [7],MIC [8],MIC [9],MIC [10],MIC [11],MIC [12],MIC [13],MIC [14],MIC [15],MIC [16],MIC [17],MIC [18],MIC [19],MIC [20],further results
"C[n+]1c(-c2ccccc2)cc(N)nc1SCC1=C(C(=O)[O-])N2C(=O)[C@@H](NC(=O)/C(=N\OC(C)(C)C(=O)O)c3csc(N)n3)[C@H]2SC1 [Example 20, 7-[(Z)-2-(2-aminothiazol-4-yl)-2-(carboxyprop-2-oxyimino)acetamido]-3-(4-amino-6-phenyl-1-methylpyrimidinium-2-yl)thiomethyl-3-cephem-4-carboxylate]",64 µg/mL,64 µg/mL,0.13 µg/mL,0.5 µg/mL,4 µg/mL,130 ng/mL,0.25 µg/mL,0.5 µg/mL,0.13 µg/mL,0.25 µg/mL,≤ 8 ng/mL,0.25 µg/mL,0.5 µg/mL,≤ 8 ng/mL,16 µg/mL,2 µg/mL,4 µg/mL,1 µg/mL,2 µg/mL,0.13 µg/mL,MIC [21]: 0.25 µg/mL; MIC [22]: 2 µg/mL; MIC [23]: 4 µg/mL; MIC [24]: 1 µg/mL; MIC [25]: > 128 µg/mL
"CC(C)(O/N=C(\C(=O)N[C@@H]1C(=O)N2C(C(=O)[O-])=C(CSc3nc(N)c(N)c[n+]3N)CS[C@H]12)c1csc(N)n1)C(=O)O [Example 47, 7-[(Z)-2-(2-aminothiazol-4-yl)-2-(carboxyprop-2-oxyimino)acetamido]-3-(1,4,5-triaminopyrimidinium-2-yl)thiomethyl-3-cephem-4-carboxylate]",16 µg/mL,128 µg/mL,0.5 µg/mL,0.031 µg/mL,1 µg/mL,≤ 8 ng/mL,0.031 µg/mL,0.031 µg/mL,0.031 µg/mL,0.25 µg/mL,≤ 8 ng/mL,0.063 µg/mL,0.063 µg/mL,≤ 8 ng/mL,2 µg/mL,1 µg/mL,2 µg/mL,0.13 µg/mL,0.13 µg/mL,0.031 µg/mL,MIC [21]: 0.031 µg/mL; MIC [22]: 2 µg/mL; MIC [23]: 4 µg/mL; MIC [24]: 2 µg/mL; MIC [25]: > 128 µg/mL
CC(C)(O/N=C(\C(=O)N[C@@H]1C(=O)N2C(C(=O)[O-])=C(CSc3nc(N)cc[n+]3N)CS[C@H]12)c1csc(N)n1)C(=O)O [Example 43],2 µg/mL,128 µg/mL,0.5 µg/mL,0.063 µg/mL,0.5 µg/mL,≤ 8 ng/mL,0.063 µg/mL,0.063 µg/mL,0.063 µg/mL,0.5 µg/mL,≤ 8 ng/mL,0.031 µg/mL,0.031 µg/mL,≤ 8 ng/mL,2 µg/mL,1 µg/mL,1 µg/mL,0.13 µg/mL,0.13 µg/mL,0.031 µg/mL,MIC [21]: 0.063 µg/mL; MIC [22]: 2 µg/mL; MIC [23]: 8 µg/mL; MIC [24]: 2 µg/mL; MIC [25]: > 128 µg/mL
"CNc1cc(N)nc(SCC2=C(C(=O)[O-])N3C(=O)[C@@H](NC(=O)/C(=N\OC(C)(C)C(=O)O)c4csc(N)n4)[C@H]3SC2)[n+]1C [Example 35, 7-[(Z)-2-(2-aminothiazol-4-yl)-2-(carboxyprop-2-oxyimino)acetamido]-3-(4-amino-6-methylamino-1-methylpyrimidinium-2-yl)thiomethyl-3-cephem-4-carboxylate]",8 µg/mL,128 µg/mL,0.5 µg/mL,0.063 µg/mL,1 µg/mL,≤ 8 ng/mL,0.063 µg/mL,0.063 µg/mL,0.063 µg/mL,0.25 µg/mL,≤ 8 ng/mL,0.031 µg/mL,0.063 µg/mL,≤ 8 ng/mL,2 µg/mL,2 µg/mL,2 µg/mL,0.13 µg/mL,0.13 µg/mL,0.031 µg/mL,MIC [21]: 0.063 µg/mL; MIC [22]: 2 µg/mL; MIC [23]: 4 µg/mL; MIC [24]: 2 µg/mL; MIC [25]: > 128 µg/mL
